Data as given in US20210045385A1, “PYRIDAZINONE-SUBSTITUTED KETOXIMES AS HERBICIDES” (FMC Corporation, priority 2018, published 2021).

Key:
Type in all cases: in vivo
[1] = system: pigweed (Amaranthus retroflexus); test: Test A postemergence, visual plant response rating; conditions: for Pigweed plant response rating (0 to 100 scale): 500 g ai/ha, postemergence, 0 is no effect, 100 is complete control; for Pigweed plant response rating: Postemergence, 125 g ai/ha, 0 to 100 scale (0 no effect, 100 complete control)
How it was run: (§1)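 Preemergence: seeds in loam/sand blend given directed soil spray of compound in non-phytotoxic solvent with surfactant. Postemergence: plants 2–10 cm, one- to two-leaf stage, sprayed with same formulation. Visual injury rated vs untreated controls after ~10 days in greenhouse, 0 (no effect) to 100 (complete control).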

[2] = system: wheat (Triticum aestivum); test: Test A postemergence, visual plant response rating; conditions: for Wheat plant response rating (0 to 100 scale): 500 g ai/ha, postemergence, 0 is no effect, 100 is complete control; for Wheat plant response rating: Postemergence, 125 g ai/ha, 0 to 100 scale (0 no effect, 100 complete control)
How it was run: as §1

[3] = system: ragweed (common ragweed, Ambrosia elatior); test: Test A postemergence, visual plant response rating; conditions: for Ragweed plant response rating (0 to 100 scale): 500 g ai/ha, postemergence, 0 is no effect, 100 is complete control; for Ragweed plant response rating: Postemergence, 125 g ai/ha, 0 to 100 scale (0 no effect, 100 complete control)
How it was run: as §1

[4] = system: Italian ryegrass (Lolium multiflorum); test: Test A postemergence, visual plant response rating; conditions: for Ryegrass, Italian plant response rating (0 to 100 scale): 500 g ai/ha, postemergence, 0 is no effect, 100 is complete control; for Ryegrass, Italian plant response rating: Postemergence, 125 g ai/ha, 0 to 100 scale (0 no effect, 100 complete control)
How it was run: as §1

[5] = system: corn (Zea mays); test: Test A postemergence, visual plant response rating; conditions: for Corn plant response rating (0 to 100 scale): 500 g ai/ha, postemergence, 0 is no effect, 100 is complete control; for Corn plant response rating: Postemergence, 125 g ai/ha, 0 to 100 scale (0 no effect, 100 complete control)
How it was run: as §1

[6] = system: kochia (Kochia scoparia); test: Test A postemergence, visual plant response rating; conditions: for Kochia plant response rating (0 to 100 scale): 500 g ai/ha, postemergence, 0 is no effect, 100 is complete control; for Kochia plant response rating: Postemergence, 125 g ai/ha, 0 to 100 scale (0 no effect, 100 complete control)
How it was run: as §1

[7] = system: barnyardgrass (Echinochloa crus-galli); test: Test A postemergence, visual plant response rating; conditions: for Barnyardgrass plant response rating (0 to 100 scale): 500 g ai/ha, postemergence, 0 is no effect, 100 is complete control; for Barnyardgrass plant response rating: Postemergence, 125 g ai/ha, 0 to 100 scale (0 no effect, 100 complete control)
How it was run: as §1

[8] = system: blackgrass (Alopecurus myosuroides); test: Test A postemergence, visual plant response rating; conditions: for Blackgrass plant response rating (0 to 100 scale): 500 g ai/ha, postemergence, 0 is no effect, 100 is complete control; for Blackgrass plant response rating: Postemergence, 125 g ai/ha, 0 to 100 scale (0 no effect, 100 complete control)
How it was run: as §1

[9] = system: foxtail, giant (giant foxtail, Setaria faberii); test: Test A postemergence, visual plant response rating; conditions: for Foxtail, Giant plant response rating (0 to 100 scale): 500 g ai/ha, postemergence, 0 is no effect, 100 is complete control; for Foxtail, Giant plant response rating: Postemergence, 125 g ai/ha, 0 to 100 scale (0 no effect, 100 complete control)
How it was run: as §1

[10] = system: galium (catchweed bedstraw, Galium aparine); test: Test A postemergence, visual plant response rating; conditions: for Galium plant response rating (0 to 100 scale): 500 g ai/ha, postemergence, 0 is no effect, 100 is complete control; for Galium plant response rating: Postemergence, 125 g ai/ha, 0 to 100 scale (0 no effect, 100 complete control)
How it was run: as §1

[11] = system: ducksalad (Heteranhera limosa); test: Test B flooded paddy test, visual plant response rating; conditions: 250 g ai/ha, Flood, applied to paddy water, 2-leaf stage, evaluated after 13 to 15 days
How it was run: (§2)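 Compounds added straight into paddy water of pots flooded to 3 cm, with 2-leaf-stage plants of the four species; water level held throughout.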

[12] = system: sedge, umbrella (small-flower umbrella sedge, Cyperus difformis); test: as above; conditions: 250 g ai/ha, Flood, applied to paddy water, 2-leaf stage, evaluated after 13 to 15 days
How it was run: as §2

[13] = system: barnyardgrass (Echinochloa crus-galli); test: as above; conditions: 250 g ai/ha, Flood, applied to paddy water, 2-leaf stage, evaluated after 13 to 15 days
How it was run: as §2

[14] = system: rice (Oryza sativa); test: as above; conditions: 250 g ai/ha, Flood, applied to paddy water, 2-leaf stage, evaluated after 13 to 15 days
How it was run: as §2

[15] = system: pigweed (Amaranthus retroflexus); test: Test A preemergence, visual plant response rating; conditions: for Pigweed plant response rating: 125 g ai/ha, preemergence, 0 to 100 scale, 0 no effect, 100 complete control; for Pigweed plant response rating (0 to 100 scale): 500 g ai/ha Preemergence, approx. 10 days
How it was run: as §1

[16] = system: ragweed (common ragweed, Ambrosia elatior); test: Test A preemergence, visual plant response rating; conditions: for Ragweed plant response rating: 125 g ai/ha, preemergence, 0 to 100 scale, 0 no effect, 100 complete control; for Ragweed plant response rating (0 to 100 scale): 500 g ai/ha Preemergence, approx. 10 days
How it was run: as §1

[17] = system: Italian ryegrass (Lolium multiflorum); test: Test A preemergence, visual plant response rating; conditions: for Ryegrass, Italian plant response rating: 125 g ai/ha, preemergence, 0 to 100 scale, 0 no effect, 100 complete control; for Ryegrass, Italian plant response rating (0 to 100 scale): 500 g ai/ha Preemergence, approx. 10 days
How it was run: as §1

[18] = system: kochia (Kochia scoparia); test: Test A preemergence, visual plant response rating; conditions: for Kochia plant response rating: 125 g ai/ha, preemergence, 0 to 100 scale, 0 no effect, 100 complete control; for Kochia plant response rating (0 to 100 scale): 500 g ai/ha Preemergence, approx. 10 days
How it was run: as §1

[19] = system: barnyardgrass (Echinochloa crus-galli); test: Test A preemergence, visual plant response rating; conditions: for Barnyardgrass plant response rating: 125 g ai/ha, preemergence, 0 to 100 scale, 0 no effect, 100 complete control; for Barnyardgrass plant response rating (0 to 100 scale): 500 g ai/ha Preemergence, approx. 10 days
How it was run: as §1

[20] = system: foxtail, giant (giant foxtail, Setaria faberii); test: Test A preemergence, visual plant response rating; conditions: for Foxtail, Giant plant response rating: 125 g ai/ha, preemergence, 0 to 100 scale, 0 no effect, 100 complete control; for Foxtail, Giant plant response rating (0 to 100 scale): 500 g ai/ha Preemergence, approx. 10 days
How it was run: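 Compared with untreated controls, treated plants received a visual injury score on a 0–100 scale around 10 days after application. The compound, in a non-phytotoxic solvent with surfactant, was given as a preemergence soil spray or postemergence at the one- to two-leaf stage.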

Structure (SMILES) | Pigweed plant response rating (0 to 100 scale) [1] | Pigweed plant response rating [1] | Wheat plant response rating (0 to 100 scale) [2] | Wheat plant response rating [2] | Ragweed plant response rating (0 to 100 scale) [3] | Ragweed plant response rating [3] | Ryegrass, Italian plant response rating (0 to 100 scale) [4] | Ryegrass, Italian plant response rating [4] | Corn plant response rating (0 to 100 scale) [5] | Corn plant response rating [5] | Kochia plant response rating (0 to 100 scale) [6] | Kochia plant response rating [6] | Barnyardgrass plant response rating (0 to 100 scale) [7] | Barnyardgrass plant response rating [7] | Blackgrass plant response rating (0 to 100 scale) [8] | Blackgrass plant response rating [8] | Foxtail, Giant plant response rating (0 to 100 scale) [9] | Foxtail, Giant plant response rating [9] | Galium plant response rating (0 to 100 scale) [10] | Galium plant response rating [10] | also measured
CON=C(c1cc(Cl)ccc1C(F)(F)F)c1c(O)c(C)nn(C)c1=O [Compound 97] | 80 | 80 | 50 | 30 | 80 | 70 | 100 | 90 | 40 | 0 | 70 | 60 | 60 | 40 | 90 | 70 | 80 | 70 | 90 | 70 | Plant response rating, Ducksalad (0 to 100 scale, 0 is no effect, 100 is complete control) [11]: 0; Plant response rating, Sedge, Umbrella (0 to 100 scale, 0 is no effect, 100 is complete control) [12]: 0; Plant response rating, Barnyardgrass (0 to 100 scale, 0 is no effect, 100 is complete control) [13]: 0; Plant response rating, Rice (0 to 100 scale, 0 is no effect, 100 is complete control) [14]: 0; Pigweed plant response rating [15]: 40; Pigweed plant response rating (0 to 100 scale) [15]: 90; Ragweed plant response rating [16]: 60; Ragweed plant response rating (0 to 100 scale) [16]: 100; Ryegrass, Italian plant response rating [17]: 80; Ryegrass, Italian plant response rating (0 to 100 scale) [17]: 100; Kochia plant response rating [18]: 20; Kochia plant response rating (0 to 100 scale) [18]: 50; Barnyardgrass plant response rating [19]: 70; Barnyardgrass plant response rating (0 to 100 scale) [19]: 90; Foxtail, Giant plant response rating [20]: 80; Foxtail, Giant plant response rating (0 to 100 scale) [20]: 90
CCO/N=C(/c1c(O)c(C)nn(C)c1=O)c1ccc(F)c2ccccc12 [Compound 84] | 90 | 80 | 50 | 40 | 100 | 90 | 100 | 90 | 30 | 20 | 80 | 70 | 80 | 60 | 100 | 90 | 80 | 70 | 100 | 90 | Plant response rating, Ducksalad (0 to 100 scale, 0 is no effect, 100 is complete control) [11]: 0; Plant response rating, Sedge, Umbrella (0 to 100 scale, 0 is no effect, 100 is complete control) [12]: 0; Plant response rating, Barnyardgrass (0 to 100 scale, 0 is no effect, 100 is complete control) [13]: 0; Plant response rating, Rice (0 to 100 scale, 0 is no effect, 100 is complete control) [14]: 0; Pigweed plant response rating [15]: 100; Pigweed plant response rating (0 to 100 scale) [15]: 100; Ragweed plant response rating [16]: 80; Ragweed plant response rating (0 to 100 scale) [16]: 100; Ryegrass, Italian plant response rating [17]: 100; Ryegrass, Italian plant response rating (0 to 100 scale) [17]: 100; Kochia plant response rating [18]: 20; Kochia plant response rating (0 to 100 scale) [18]: 60; Barnyardgrass plant response rating [19]: 60; Barnyardgrass plant response rating (0 to 100 scale) [19]: 100; Foxtail, Giant plant response rating [20]: 100; Foxtail, Giant plant response rating (0 to 100 scale) [20]: 100
C#CCON=C(c1c(O)c(C)nn(C)c1=O)c1cccc2ccccc12 (mixture of isomers) [Compound 118] | 100 | 100 | 90 | 40 | 90 | 90 | 100 | 90 | 70 | 30 | 100 | 70 | 90 | 90 | 100 | 90 | 90 | 80 | 100 | 90 | Plant response rating, Ducksalad (0 to 100 scale, 0 is no effect, 100 is complete control) [11]: 55; Plant response rating, Sedge, Umbrella (0 to 100 scale, 0 is no effect, 100 is complete control) [12]: 35; Plant response rating, Barnyardgrass (0 to 100 scale, 0 is no effect, 100 is complete control) [13]: 0; Plant response rating, Rice (0 to 100 scale, 0 is no effect, 100 is complete control) [14]: 0; Pigweed plant response rating [15]: 100; Pigweed plant response rating (0 to 100 scale) [15]: 100; Ragweed plant response rating [16]: 80; Ragweed plant response rating (0 to 100 scale) [16]: 100; Ryegrass, Italian plant response rating [17]: 100; Ryegrass, Italian plant response rating (0 to 100 scale) [17]: 100; Kochia plant response rating [18]: 40; Kochia plant response rating (0 to 100 scale) [18]: 60; Barnyardgrass plant response rating [19]: 60; Barnyardgrass plant response rating (0 to 100 scale) [19]: 100; Foxtail, Giant plant response rating [20]: 80; Foxtail, Giant plant response rating (0 to 100 scale) [20]: 100
CON=C(c1cc(C(F)(F)F)ccc1Cl)c1c(O)c(C)nn(C)c1=O [Compound 73] | 90 | 80 | 40 | 20 | 80 | 50 | 90 | 40 | 20 | 0 | 80 | 60 | 60 | 20 | 90 | 30 | 60 | 30 | 70 | 70 | Plant response rating, Ducksalad (0 to 100 scale, 0 is no effect, 100 is complete control) [11]: 0; Plant response rating, Sedge, Umbrella (0 to 100 scale, 0 is no effect, 100 is complete control) [12]: 0; Plant response rating, Barnyardgrass (0 to 100 scale, 0 is no effect, 100 is complete control) [13]: 0; Plant response rating, Rice (0 to 100 scale, 0 is no effect, 100 is complete control) [14]: 0; Pigweed plant response rating [15]: 70; Pigweed plant response rating (0 to 100 scale) [15]: 100; Ragweed plant response rating [16]: 30; Ragweed plant response rating (0 to 100 scale) [16]: 90; Ryegrass, Italian plant response rating [17]: 20; Ryegrass, Italian plant response rating (0 to 100 scale) [17]: 50; Kochia plant response rating [18]: 0; Kochia plant response rating (0 to 100 scale) [18]: 20; Barnyardgrass plant response rating [19]: 20; Barnyardgrass plant response rating (0 to 100 scale) [19]: 80; Foxtail, Giant plant response rating [20]: 20; Foxtail, Giant plant response rating (0 to 100 scale) [20]: 80
